Columns and labels:
[1] = tested on: cultured hippocampal network; assay: Evoked reverberatory activity of a cultured hippocampal network, patch clamping (polysynaptic current); format: cell-based, rat
From the text: In several studies, the NMDA-type glutamate receptor antagonist AP-5 was, for example, incorporated as a dopant into PPy-coated gold “macro-electrodes” (having an area of 0.77-cm^2). In general, macro-electrodes or macroelectrodes have dimensions greater than 1 mm. A hippocampal neuronal culture and patch clamping were used to test the effectiveness of AP5 release. The drug was released from the electrode into normal recording solution by applying 30 cyclic voltage stimuli. This solution, when added to the neuronal culture, blocked evoked reverberatory activity in the network. […] 280 trials (at 30 s intervals) of evoked activity of a cultured hippocampal network under 5 different conditions were made in several studies as follows: 1. control (ctrl); 2. with 25 μM D-AP5 (AP5); 3. wash with recording solution that soaked the macroelectrode without voltage pulses (wash1); 4. with recording solution containing electrically released AP5 (AP5_r); 5. wash with normal recording solution (wash2). […] FIGS. 3A-3E sets forth example traces of polysynaptic current with one sample trace for each test condition. The scale bar in FIGS. 3A-E is 0.5 nA, 1 s.

[2] = tested on: low-density neuronal network; assay: Patch clamp recording of monosynaptic currents in low-density neuronal network on PPy-modified MED64 after command signal; format: cell-based
From the text: FIG. 6A is a photomicrograph image of a low-density neuronal network growing on a conducting polymer modified multielectrode array (MED64 available from Panasonic). The platinum coated electrodes are modified with the conducting polymer poly-pyrrole (PPy) containing either CNQX or chloride and phosphate ions (P) from PBS (blank release control). Release of the drug is affected by a “command signal,” which is the delivery of a voltage pulse (−2.5 V, 200 ms). Neuron “firing,” the generation of action potentials, is an all or none phenomenon. Synaptic currents are a continuous and graded phenomenon. For this reason synaptic currents recorded by patch electrodes better reflect the release and diffusion of the synaptic inhibitor CNQX, compared to action potentials recorded by the extracellular electrodes. To monitor the effect of release, individual cells in the network are patch clamped (wherein the patched cell is indicated by an arrow in FIG. 6A). The experimental protocol is described graphically in FIG. 6B. Neural stimulations (ns1,2, . . . ,8) are delivered through the substrate electrodes (but not the releasing electrode). The command signal starts 300 ms prior to ns2, and the currents are recorded by the patch electrode. […] FIG. 6C sets forth 8 columns corresponding to ns1 . . . 8, and 6 rows corresponding to individual trials. […]

[3] = tested on: neuronal cultures from E18 rat cortices; assay: Extracellular recording of spontaneous spiking on MED64 microelectrodes coated with polypyrrole/CNQX after current stimulus; format: cell-based
From the text: CNQX is an AMPA type glutamate receptor antagonist which inhibits excitatory neural transmission. We electrodeposited polypyrrole/CNQX on the microelectrodes of MED64 probes which were than plated with neuronal cultures from E18 rat cortices. When spontaneous activity was observed on an electrode bearing a CNQX/PPy film, a current stimulus (four 1 s-long pulses of −5 μA with 200 ms refractory periods in between) was applied to the electrode. Recordings were taken before and after the stimulus to observe any inhibition and recovery (during the stimulation it was not possible to record from the particular electrode given the pulse).
It was observed that neural spiking disappeared after applying the stimulus to an electrode bearing the PPy/CNQX. And at a later time point action potentials from the same cell (determined by examination of the waveforms in Offline Sorter and Wave Tracker, Plexon Inc.) reappeared on the electrode and the rate returned to baseline (determined by pre-stimulus control recordings). […] We determined, through repeated release, inhibition and recovery cycles, a time course of inhibition and recovery (see FIG. 5B) that appears consistent with the published effect of CNQX and with the theoretical estimate of CNQX diffusion in solution. In the studies of FIG. 5B, repeated CNQX release trials were performed to determine a time course of recovery. […]

Compound | reverberatory activity (polysynaptic current) ([1]; added AP5, 25 μM D-AP5 in recording solution) | reverberatory activity (polysynaptic current) ([1]; recording solution containing AP5 electrically released from PPy macroelectrode by 30 cyclic voltage stimuli (AP5_r)) | monosynaptic current following release (individual trial, FIG. 6C) ([2]; cell close to a CNQX containing electrode) | size of monosynaptic currents following command signal ([2]; voltage pulse −2.5 V, 200 ms to electrode with PPy film containing CNQX) | neuronal spiking on the releasing/recording electrode after release ([3]; four 1 s pulses of −5 μA, transient, with subsequent recovery to baseline) | spiking activity on neighboring electrodes after release ([3]; inter-electrode distance of 212 μm)
N[C@H](CCCP(=O)(O)O)C(=O)O [AP5, 2-amino-5-phosphonopentanoic acid] | completely blocked | completely blocked |  |  |  | 
N#Cc1cc2nc(O)c(O)nc2cc1[N+](=O)[O-] [CNQX, 6-cyano-7-nitroquinoxaline-2,3-dione] |  |  | almost completely abolished | significant decrease | suppression of neuronal spiking | did not affect spiking activity on neighboring electrodes
